Results: US12048320B2, “Process for preparing high density, thermostable polysaccharide beads as food additives” (DNA CATCHER, S.L, priority 2019, dated 2024)

Columns and labels:
[1] = End point (maximum) amount of water miscible solvent in hydrated DB; type: physicochemical; settings: MV alginate, 1:1.25 alginate:water
Description: Hydrated DB beads were prepared as example 1 using MV alginate. In this case, the water was used to achieve alginate within the hydrated beads to be 44.44% (w/w), which means 125 mL water and 100 g MV alginate (1:1.25 alginate:water ratio). WMS were propylene glycols (PG), glycerol, polyethylene glycol (PEG400) and absolute ethanol. Then, different amounts of volatile and non-volatile water miscible solvents (WMS) were added slowly to the hydrated beads under high shear mixing. The end point (the optimized amount of WMS) was calculated by monitoring physical properties of hydrated beads including size and hardness as described in examples 1 & 2. […] Beads then were cross-linked, washed and dried as described in example 1.
The end point (end point ratio by weight (alginate:water:WMS)) in table 14 means the maximum amount of WMS that allows to obtain acceptable bead hardness (more than 1 kg/cm^2/g beads) and acceptable size range of both wet and dry beads according to the established criteria in table 3 and 4, example 1.

[2] = Limonene loss post baking of pancakes (gas chromatography); type: physicochemical; settings: pancakes baked at 200° C. for 15 min
Description: The amount of D-limonene was assayed pre and post baking. For this purpose, 10 ml of distilled water was added to 5 g pancakes. Then, 30 ml methanol was added and the mixture was centrifuged at 3000 rpm for 20 min for further assay by gas chromatography. The % of lost limonene post packing as the following equation and expressed as the % of lost limonene post packing (w/w): % of lost limonene post baking (w/w)=(Initial amount added before backing−Residual amount of limonene found in baked pancakes)[…] Results

| Total maximum amount of WMS expressed as % w/w [1] [% w/w] | The % of lost limonene one day post packing (w/w), Mean ([2]; one day) | The % of lost limonene one month post packing (w/w), Mean ([2]; one month) | SMILES |
| --- | --- | --- | --- |
| 34.78 | – | – | OCC(O)CO [Glycerol, glycerol] |
| 36.61 | – | – | CC(O)CO (centres unmarked) [Propylene glycols (PG), propylene glycols] |
| – | 89.56 % (w/w) | 93.23 % (w/w) | C=C(C)[C@H]1CC=C(C)CC1 [Free limonene, (4R)-1-methyl-4-(1-methylethenyl)-cyclohexene] |
| 25.00 | – | – | CCO [Ethanol, absolute ethanol] |
